{"source": "patent US7053052B2", "about": "“Therapies involving mutated heat shock transcription factor” (priority 1997, dated 2006)", "system": "HeLa-CAT cells", "assay": "Recovery of translation after heat shock (3H-leucine pulse-labeling)", "assay_type": "cell-based, human", "details": "contribution of untransfected cells subtracted", "procedure": "In a typical experiment, parallel HeLa-CAT cultures in 60 mm dishes (more than 70% confluent) were transfected with 0.75 ug of EGFP construct and 2.25 ug of HSF1(+) or HSF1(−) construct and 15 ul Lipofectamine™. Before exposing the cultures to heat shock about 36 hours post transfection, cells were replated (to achieve about 70% confluence). Note that in some experiments, HSF1(+) was delivered by infection with an adenoviral vector rather than by transfection. Cultures were exposed to a 42° C./1 hour heat shock and then returned to 37° C. Rates of protein synthesis before, during, and at different times after a subsequent, more severe heat shock were determined by pulse-labeling of cells with ^3H-leucine. For labeling, cultures were washed two times with prewarmed PBS, and one ml of labeling medium (leucine-free DMEM with 2% FBS and 65 uCi of ^3H-leucine (179 Ci/mmolc)) was added. […] Relative rates of protein synthesis were calculated as cpm/ug protein. […]\nTo find out whether HSF1(−) could function as a negatively acting factor, HeLa-CAT cells containing integrated copies of an hsp70B-chloramphenicol acetyltransferase (CAT) gene were co-transfected with an HSF1(−) and an EFGP-expressing construct. […] Rates of protein synthesis were assessed by pulse-labeling cells with ^3H-leucine. […]", "data": [{"substance": "human HSF1d453–523 [HSF1(−)]", "values": [{"measurement": "corrected rate of protein synthesis one hour after heat shock", "setting": "first experiment", "result": "about 5%"}, {"measurement": "corrected rate of protein synthesis one hour after heat shock", "setting": "second experiment", "result": "~24", "unit": "%"}]}]}
